Target: Serine hydrolase RBBP9 (Homo sapiens) (UniProt O75884)
Test: human RBBP9 inhibitor potency, late-stage follow-up, biochemical, gel-based ABPP, IC50 (AID 2254)
Settings: fluorophosphonate probe labeling of RBBP9

Sequence of Serine hydrolase RBBP9 (Homo sapiens) (O75884 whole entry, looked up): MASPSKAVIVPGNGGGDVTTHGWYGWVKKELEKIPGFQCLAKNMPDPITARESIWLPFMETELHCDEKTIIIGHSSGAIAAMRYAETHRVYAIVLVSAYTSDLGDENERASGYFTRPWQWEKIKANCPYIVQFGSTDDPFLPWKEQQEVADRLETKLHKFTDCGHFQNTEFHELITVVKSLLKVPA

Row | IC50 | SMILES
1 | 5.7 µM | C/C(=N\OC(=O)c1ccc(F)cc1)c1nccs1
2 | 9.1 µM | COc1ccc(C(=O)O/N=C(\C)c2nccs2)cc1
3 | 1.9 µM | C/C(=N\OC(=O)c1ccc(Cl)cc1)c1nccs1
4 | 0.635 µM | C/C(=N\OC(=O)C1CCCCC1)c1nccs1

— PubChem BioAssay AID2254 (The Scripps Research Institute Molecular Screening Center, 2010)
